Reference: ChEMBL document CHEMBL1201862, “PubChem BioAssay data set” (2004)
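96-well plates; 48 h exposure; 5 concentrations. Endpoints by linear interpolation between flanking doses. Not reached: highest tested concentration assigned. The concentration for 50% growth inhibition is given as GI50.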 Active and inactive are the calls of the source. Rule as the data show it: active = GI50 up to about 1.1 µM and inactive = higher.

Key:
Experiment in all cases: NCI tumour cell line growth inhibition, 48 h
A549 = system: A549
HCC 2998 = system: HCC 2998
KM12 = system: KM12
MDA-N = system: MDA-N
Malme-3M = system: Malme-3M
NCI-H226 = system: NCI-H226
NCI-H23 = system: NCI-H23
OVCAR-3 = system: OVCAR-3
SF-539 = system: SF-539
SK-MEL-2 = system: SK-MEL-2
SK-MEL-5 = system: SK-MEL-5
SK-OV-3 = system: SK-OV-3
SR = system: SR
T47D = system: T47D
TK-10 = system: TK-10
UACC-62 = system: UACC-62
CAKI-1 = system: CAKI-1
MCF7 = system: MCF7
U-251 = system: U-251

Measured: GI50

COC(=O)c1c(C(=O)OC)c2ccccn2c1-c1cc(OC)c(Br)c(=O)o1
inactive: A549 > 100 µM | HCC 2998 > 100 µM | KM12 > 100 µM | MDA-N > 100 µM | Malme-3M > 100 µM | NCI-H226 > 100 µM | NCI-H23 > 100 µM | OVCAR-3 > 100 µM | SF-539 56.8 µM | SK-MEL-2 > 100 µM | SK-MEL-5 > 100 µM | SK-OV-3 > 100 µM | SR > 100 µM | T47D > 100 µM | TK-10 > 100 µM | UACC-62 > 100 µM

N#CC(N)c1ccc(OCCCCCCCCCCOc2ccc(C(N)C#N)cc2)cc1 (stereo unspecified)
inactive: A549 > 100 µM | CAKI-1 > 100 µM | HCC 2998 > 100 µM | KM12 > 100 µM | MCF7 > 100 µM | MDA-N > 100 µM | Malme-3M > 100 µM | NCI-H226 > 100 µM | NCI-H23 > 100 µM | OVCAR-3 > 100 µM | SF-539 > 100 µM | SK-MEL-2 81.8 µM | SK-MEL-5 > 100 µM | SK-OV-3 > 100 µM | T47D 84.1 µM | TK-10 > 100 µM | U-251 65.3 µM | UACC-62 > 100 µM

O=C(O)c1cc(O)nc(S)n1
inactive: A549 > 100 µM | CAKI-1 > 100 µM | HCC 2998 > 100 µM | KM12 > 100 µM | MCF7 > 100 µM | MDA-N > 100 µM | Malme-3M > 100 µM | NCI-H226 > 100 µM | NCI-H23 > 100 µM | OVCAR-3 > 100 µM | SK-MEL-2 > 100 µM | SK-MEL-5 > 100 µM | SK-OV-3 > 100 µM | T47D > 100 µM | TK-10 > 100 µM | U-251 > 100 µM | UACC-62 > 100 µM

CCCCCC/C=C/C#CCCCCCCCC(=O)O
inactive: A549 > 100 µM | CAKI-1 > 100 µM | HCC 2998 > 100 µM | KM12 > 100 µM | MCF7 > 100 µM | MDA-N > 100 µM | Malme-3M > 100 µM | NCI-H226 > 100 µM | NCI-H23 > 100 µM | OVCAR-3 > 100 µM | SF-539 > 100 µM | SK-MEL-2 > 100 µM | SK-MEL-5 > 100 µM | SK-OV-3 > 100 µM | T47D > 100 µM | TK-10 > 100 µM | U-251 > 100 µM

CCOC(=O)C(O)(CC1=NC(C(=O)OC)(C(=O)OC)C(c2cccc(C=O)c2)O1)C(=O)OCC (stereo unspecified)
inactive: A549 > 100 µM | CAKI-1 > 100 µM | HCC 2998 > 100 µM | KM12 > 100 µM | MCF7 > 100 µM | MDA-N > 100 µM | NCI-H226 > 100 µM | NCI-H23 > 100 µM | OVCAR-3 > 100 µM | SK-MEL-2 > 100 µM | SK-MEL-5 > 100 µM | SK-OV-3 > 100 µM | SR > 100 µM | T47D > 100 µM | TK-10 > 100 µM | U-251 > 100 µM | UACC-62 > 100 µM

C=Cc1nc(C#N)c(N)o1
inactive: A549 > 100 µM | CAKI-1 > 100 µM | HCC 2998 > 100 µM | KM12 > 100 µM | MCF7 > 100 µM | MDA-N > 100 µM | Malme-3M > 100 µM | NCI-H226 > 100 µM | NCI-H23 > 100 µM | OVCAR-3 > 100 µM | SF-539 > 100 µM | SK-MEL-2 > 100 µM | SK-MEL-5 > 100 µM | SK-OV-3 > 100 µM | T47D > 100 µM | TK-10 > 100 µM | U-251 > 100 µM

S=C1Nc2cnc3ccccc3c2SC1c1ccccc1 (stereo unspecified)
inactive: A549 > 100 µM | CAKI-1 > 100 µM | KM12 > 100 µM | MCF7 > 100 µM | MDA-N > 100 µM | Malme-3M > 100 µM | NCI-H226 > 100 µM | NCI-H23 96.4 µM | OVCAR-3 > 100 µM | SK-MEL-5 > 100 µM | SK-OV-3 72.8 µM | SR > 100 µM | T47D > 100 µM | TK-10 > 100 µM | U-251 > 100 µM | UACC-62 > 100 µM

OCCCNc1[nH]cnc2nncc1-2
inactive: A549 > 100 µM | CAKI-1 9.82 µM | HCC 2998 > 100 µM | KM12 > 100 µM | MCF7 > 100 µM | MDA-N > 100 µM | Malme-3M > 100 µM | NCI-H226 > 100 µM | NCI-H23 > 100 µM | OVCAR-3 > 100 µM | SF-539 41.1 µM | SK-MEL-2 > 100 µM | SK-MEL-5 > 100 µM | SK-OV-3 > 100 µM | T47D > 100 µM | TK-10 > 100 µM | U-251 > 100 µM | UACC-62 > 100 µM

Cc1cn(CCCC2=NCCCN2)c(=O)[nH]c1=O
inactive: A549 > 100 µM | CAKI-1 > 100 µM | HCC 2998 > 100 µM | KM12 > 100 µM | MCF7 > 100 µM | MDA-N > 100 µM | Malme-3M > 100 µM | NCI-H226 > 100 µM | NCI-H23 > 100 µM | OVCAR-3 > 100 µM | SF-539 > 100 µM | SK-MEL-2 > 100 µM | SK-MEL-5 > 100 µM | SK-OV-3 > 100 µM | T47D > 100 µM | TK-10 > 100 µM | U-251 > 100 µM | UACC-62 > 100 µM

Cc1ccc2c(c1)C=CC1(O2)N(c2ccccc2)C(=S)OC1(C)C (stereo unspecified)
inactive: A549 67.5 µM | CAKI-1 > 100 µM | HCC 2998 76.9 µM | KM12 34.5 µM | MCF7 21.3 µM | MDA-N 29.1 µM | NCI-H226 > 100 µM | NCI-H23 35.4 µM | OVCAR-3 29.6 µM | SK-MEL-2 29 µM | SK-MEL-5 32.1 µM | SK-OV-3 21.4 µM | SR 14.5 µM | T47D 3.86 µM | TK-10 > 100 µM | U-251 83.8 µM | UACC-62 40.9 µM

COc1c(-c2nc3ccc(N4CCN(C)CC4)nc3[nH]2)cc(OC)c2c1nc(CO)n2C
inactive: A549 > 100 µM | CAKI-1 > 100 µM | HCC 2998 > 100 µM | KM12 > 100 µM | MDA-N > 100 µM | Malme-3M > 100 µM | NCI-H226 > 100 µM | NCI-H23 > 100 µM | OVCAR-3 > 100 µM | SF-539 53.3 µM | SK-MEL-2 > 100 µM | SK-OV-3 > 100 µM | T47D > 100 µM | U-251 > 100 µM | UACC-62 > 100 µM

NC(=S)Nc1ccc(S(=O)(=O)Nc2ccc(S(N)(=O)=O)cc2)cc1
inactive: A549 > 100 µM | CAKI-1 > 100 µM | KM12 > 100 µM | MCF7 > 100 µM | MDA-N > 100 µM | Malme-3M > 100 µM | NCI-H226 > 100 µM | NCI-H23 > 100 µM | OVCAR-3 > 100 µM | SK-MEL-2 > 100 µM | SK-MEL-5 > 100 µM | T47D > 100 µM | TK-10 > 100 µM | U-251 > 100 µM | UACC-62 > 100 µM
